Consider ten compounds from patent publication US20260166159A1, “KRAS G12D DEGRADATION AGENT, AND PREPARATION METHOD AND USE THEREFOR” (LEADINGTAC PHARMACEUTICAL (SHAOXING) CO., LTD., priority 2022, published 2026).

The target in assay [1] is T1, Human KRAS G12D 6His-tagged (Homo sapiens, UniProt P01116, G12D).
T1 construct: purchased PerkinElmer
The assay is described as follows: KRAS-G12D/GTP binding assay (HTRF). The note with it: class symbols. In outline:
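Compounds at 0.02-5000 nM final (0.5% DMSO) were tested for blocking GTP Red tracer binding to His-tagged KRAS G12D, detected by Eu-cryptate anti-His antibody after 1 h, 25° C. Inhibition taken from 665/620 nm ratio relative to control, then fitted to give IC50.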

Assay [2] relates to KRAS G12D mutant human lung cancer cell A427. The assay is described as follows: 3D cell proliferation inhibition assay, A427. The class given is cell-based. The note with it: A-427, 168 h, A427, 7 days, CTG, class symbols. In outline: (§1)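 3D growth, low-adsorption plate; 5×10^2 cells/well; cpd 10000–0.026 nM final, 0.2% DMSO; 7 d, 37 °C/5% CO2. CTG luminescence, 60 min RT. % inhibition vs DMSO (cells) and medium blanks; IC50 by nonlinear fit.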

Assay [3] concerns KRAS G12D mutant human gastric cancer cell AGS. The assay is described as follows: 3D cell proliferation inhibition assay, AGS. In kind it is cell-based. The conditions noted are these: 168 h, 7 days, CTG, class symbols. The procedure, abridged:
as §1

T1 sequence (P01116 1-188 isoform P01116-2 G12D): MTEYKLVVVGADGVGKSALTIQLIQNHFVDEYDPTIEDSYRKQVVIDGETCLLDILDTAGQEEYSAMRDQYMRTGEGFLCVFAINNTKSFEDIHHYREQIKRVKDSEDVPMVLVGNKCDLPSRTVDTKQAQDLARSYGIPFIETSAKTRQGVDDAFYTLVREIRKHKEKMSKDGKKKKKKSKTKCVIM

As for `C#Cc1c(F)ccc2cc(O)cc(-c3ncc4c(N5CC6CCC(C5)N6)nc(OCC5(CN6CCN(CC7CCC8(CC7)CCN(C(=O)c7ccc(OC)c(N9CCC(=O)NC9=O)c7)CC8)CC6)CC5)nc4c3F)c12` [Example 14, 1-(5-(9-((4-((1-(((4-(3,8-diazabicyclo[3.2.1]octan-3-yl)-7-(8-ethynyl-7-fluoro-3-hydroxynaphthalen-1-yl)-8-fluoropyrido[4,3-d]pyrimidin-2-yl)oxy)methyl)cyclopropyl)methyl)piperazin-1-yl)methyl)-3-azaspiro[5.5]undecane-3-carbonyl)-2-methoxyphenyl)dihydropyrimidine-2,4(1H,3H)-dione], the half-maximal inhibitory concentration (IC50) in assay [1], in assay [2] and in assay [3] was no more than 50 nM each time.
Consider `C#Cc1c(F)ccc2cc(O)cc(-c3ncc4c(N5CC6CCC(C5)N6)nc(OCC(C)(C)CN5CCN(CCCC6CCN(C(=O)c7ccc(Cl)c(N8CCC(=O)NC8=O)c7)CC6)CC5)nc4c3F)c12` [Example 23, 1-(5-(4-(3-(4-(3-((4-(3,8-diazabicyclo[3.2.1]octan-3-yl)-7-(8-ethynyl-7-fluoro-3-hydroxynaphthalen-1-yl)-8-fluoropyrido[4,3-d]pyrimidin-2-yl)oxy)-2,2-dimethylpropyl)piperazin-1-yl)propyl)piperidine-1-carbonyl)-2-chlorophenyl)dihydropyrimidine-2,4(1H,3H)-dione], for which the half-inhibitory concentration (IC50) (usually the concentration at which inhibition is half-maximal) is no more than 50 nM in assay [1], 100 to 500 nM in assay [2] and 50 to 100 nM in assay [3].
`C#Cc1c(F)ccc2cc(O)cc(-c3ncc4c(N5CC6CCC(C5)N6)nc(OCC56CC(CN7CCN(CC8CCC9(CC8)CCN(C(=O)c8ccc(Cl)c(N%10CCC(=O)NC%10=O)c8)CC9)CC7)(C5)C6)nc4c3F)c12` [Example 33, 1-(5-(9-((4-((3-(((4-(3,8-diazabicyclo[3.2.1]octan-3-yl)-7-(8-ethynyl-7-fluoro-3-hydroxynaphthalen-1-yl)-8-fluoropyrido[4,3-d]pyrimidin-2-yl)oxy)methyl)bicyclo[1.1.1]pentan-1-yl)methyl)piperazin-1-yl)methyl)-3-azaspiro[5.5]undecane-3-carbonyl)-2-chlorophenyl)dihydropyrimidine-2,4(1H,3H)-dione]: the IC50 was 100 to 500 nM in assay [1], 100 to 500 nM in assay [2] and no more than 50 nM in assay [3].
With `C#Cc1c(F)ccc2cc(O)cc(-c3ncc4c(N5CC6CCC(C5)N6)nc(OCC5(CN6CCN(CC7CCC8(CC7)CCN(C(=O)c7ccc(Br)c(N9CCC(=O)NC9=O)c7)CC8)CC6)CC5)nc4c3F)c12` [Example 29, 1-(5-(9-((4-((1-(((4-(3,8-diazabicyclo[3.2.1]octan-3-yl)-7-(8-ethynyl-7-fluoro-3-hydroxynaphthalen-1-yl)-8-fluoropyrido[4,3-d]pyrimidin-2-yl)oxy)methyl)cyclopropyl)methyl)piperazin-1-yl)methyl)-3-azaspiro[5.5]undecane-3-carbonyl)-2-bromophenyl)dihydropyrimidine-2,4(1H,3H)-dione], the IC50 in assay [1], in assay [2] and in assay [3] was no more than 50 nM each time.
On to `C#Cc1c(F)ccc2cc(O)cc(-c3ncc4c(N5CC6CCC(C5)N6)nc(OCC5(CN6CCN(CCCC7CCN(C(=O)c8ccc(Cl)c(N9CCC(=O)NC9=O)c8)CC7)CC6)CC5)nc4c3F)c12` [Example 4, 1-(5-(4-(3-(4-((1-(((4-(3,8-diazabicyclo[3.2.1]octan-3-yl)-7-(8-ethynyl-7-fluoro-3-hydroxynaphthalen-1-yl)-8-fluoropyrido[4,3-d]pyrimidin-2-yl)oxy)methyl)cyclopropyl)methyl)piperazin-1-yl)propyl)piperidine-1-carbonyl)-2-chlorophenyl)dihydropyrimidine-2,4(1H,3H)-dione], for which the values for the IC50 in assay [1], in assay [2] and in assay [3] were no more than 50 nM, 100 to 500 nM and 50 to 100 nM, respectively.
The corresponding values for `C#Cc1cccc2cc(O)cc(-c3ncc4c(N5CC6CCC(C5)N6)nc(OCC5(CN6CCN(CC7CCC8(CC7)CCN(C(=O)c7ccc(Cl)c(N9CCC(=O)NC9=O)c7)CC8)CC6)CC5)nc4c3F)c12` [Example 57, 1-(5-(9-((4-((1-(((4-(3,8-diazabicyclo[3.2.1]octan-3-yl)-7-(8-ethynyl-3-hydroxynaphthalen-1-yl)-8-fluoropyrido[4,3-d]pyrimidin-2-yl)oxy)methyl)cyclopropyl)methyl)piperazin-1-yl)methyl)-3-azaspiro [5.5]undecane-3-carbonyl)-2-chlorophenyl)dihydropyrimidine-2,4(1H,3H)-dione] are no more than 50 nM, no more than 50 nM and no more than 50 nM.
For `Cc1ccc2[nH]ncc2c1-c1ncc2c(N3CC4CCC(C3)N4)nc(OCC3(CN4CCN(CC5CCC6(CC5)CCN(C(=O)c5ccc(Cl)c(N7CCC(=O)NC7=O)c5)CC6)CC4)CC3)nc2c1F` [Example 16, 1-(5-(9-((4-((1-(((4-(3,8-diazabicyclo[3.2.1]octan-3-yl)-8-fluoro-7-(5-methyl-1H-indazol-4-yl)pyrido[4,3-d]pyrimidin-2-yl)oxy)methyl)cyclopropyl)methyl)piperazin-1-yl)methyl)-3-azaspiro[5.5]undecane-3-carbonyl)-2-chlorophenyl)dihydropyrimidine-2,4(1H,3H)-dione], in that order: 1000 to 10000 nM, 100 to 500 nM and 1000 to 10000 nM.
For `C#Cc1c(F)ccc2cc(O)cc(-c3ncc4c(N5CC6CCC(C5)N6)nc(OCC5(CN6CCN(CCCCC7CCC8(CC7)CCN(C(=O)c7ccc(Cl)c(N9CCC(=O)NC9=O)c7)CC8)CC6)CC5)nc4c3F)c12` [Example 31, 1-(5-(9-(4-(4-((1-(((4-(3,8-diazabicyclo[3.2.1]octan-3-yl)-7-(8-ethynyl-7-fluoro-3-hydroxynaphthalen-1-yl)-8-fluoropyrido[4,3-d]pyrimidin-2-yl)oxy)methyl)cyclopropyl)methyl)piperazin-1-yl)butyl)-3-azaspiro[5.5]undecane-3-carbonyl)-2-chlorophenyl)dihydropyrimidine-2,4(1H,3H)-dione], in that order: no more than 50 nM, no more than 50 nM and no more than 50 nM.
For the compound `C#Cc1c(F)ccc2cc(O)cc(-c3ncc4c(N5CC6CCC(C5)N6)nc(OCC5(CN6CCC(COCCC7CCN(C(=O)c8ccc(Cl)c(N9CCC(=O)NC9=O)c8)CC7)CC6)CC5)nc4c3F)c12` [Example 21, 1-(5-(4-(2-((1-((1-(((4-(3,8-diazabicyclo[3.2.1]octan-3-yl)-7-(8-ethynyl-7-fluoro-3-hydroxynaphthalen-1-yl)-8-fluoropyrido[4,3-d]pyrimidin-2-yl)oxy)methyl)cyclopropyl)methyl)piperidin-4-yl)methoxy)ethyl)piperidine-1-carbonyl)-2-chlorophenyl)dihydropyrimidine-2,4(1H,3H)-dione], the figures for the 50% inhibitory concentration (IC50) in assay [1], in assay [2] and in assay [3] were no more than 50 nM, 100 to 500 nM and no more than 50 nM, respectively.
As to `CCc1c(F)ccc2cc(O)cc(-c3ncc4c(N5CC6CCC(C5)N6)nc(OCC5(CN6CCN(CC7CCC8(CC7)CCN(C(=O)c7ccc(Cl)c(N9CCC(=O)NC9=O)c7)CC8)CC6)CC5)nc4c3F)c12` [Example 30, 1-(5-(9-((4-((1-(((4-(3,8-diazabicyclo[3.2.1]octan-3-yl)-7-(8-ethyl-7-fluoro-3-hydroxynaphthalen-1-yl)-8-fluoropyrido[4,3-d]pyrimidin-2-yl)oxy)methyl)cyclopropyl)methyl)piperazin-1-yl)methyl)-3-azaspiro[5.5]undecane-3-carbonyl)-2-chlorophenyl)dihydropyrimidine-2,4(1H,3H)-dione], the concentration for half-maximal inhibition (IC50) is 50 to 100 nM in assay [1], no more than 50 nM in assay [2] and no more than 50 nM in assay [3].
